Measurements: patent publication US11787812B2, “Substituted pyrazolo[4,3-d]pyrimidines and imidazo[5,1 -f][1,2,4]triazines as androgen receptor and phosphodiesterase dual inhibitors” (ILDONG PHARMACEUTICAL CO., LTD., priority 2020, dated 2023)

What was measured:
Human androgen receptors = Human androgen receptors (Homo sapiens (Human), UniProt P10275, T878A); experiment: Androgen receptor (AR) radioligand binding assay; details: receptors from human LNCaP cells, 0.5 nM [3H]Methyltrienolone, 20 hours at 4° C.; read-out: AR IC50
Method: Methods employed in this study have been adapted from the following literature procedure.
Human androgen receptors obtained from human LNCaP cells are used in modified HEPES buffer pH 7.4. […] Non-specific binding is estimated in the presence of 1 μM testosterone. […] (See, e.g., Traish, A. M et al., Binding of 7α, 17α-dimethyl-19-nortestosterone (Mibolerone) to androgen and progesterone receptors in human and animal tissues. Endocrinology. 118(4): 1327-1333, 1986).
Compounds are screened at 10 μM.
Where presented, IC50 values were determined by a non-linear, least squares regression analysis using MathIQ™ (ID Business Solutions Ltd., UK).

human PDE-5A1 = human PDE-5A1 (Homo sapiens (Human), UniProt O76074); experiment: Human PDE-5A1 inhibition assay (fluorescence polarization, FAM-cGMP); assay type: biochemical; details: human PDE5A1, 100 nM FAM-cGMP, 60 minutes room temperature
Text: This example illustrates the in vitro inhibition of human PDE-5A1 by exemplary compounds of this disclosure (e.g., as described herein).
Sildenafil citrate (Catalog no. LKT-S3313, Axxora, San Diego, CA), Vardenafil hydrochloride trihydrate (Catalog no. SML2103, Sigma-Aldrich, St. Louis, MO), PDE Assay Buffer (Catalog no. 60393, BPS bioscience, San Diego, CA), PDE Binding Agent (Catalog no. 60390, BPS bioscience, San Diego, CA) and PDE Binding Agent Diluent (cGMP, Catalog no. 60392, BPS bioscience, San Diego, CA) were used for assays. Test compounds were supplied by Ildong Pharmaceuticals Co., Ltd.
The serial dilution of the compounds was first performed in 100% DMSO with the highest concentration at 1 mM and 0.1 mM. Each intermediate compound dilution (in 100% DMSO) will then get directly diluted 10× fold into assay buffer for 10% DMSO and 5 μL of the dilution was added to a 50 μL reaction so that the final concentration of DMSO is 1% in all reactions.
The enzymatic reactions were conducted at room temperature for 60 minutes in a 50 μL mixture containing PDE assay buffer, 100 nM FAM-cGMP, a PDE enzyme (Table 2) and the test compounds.
After enzymatic reaction, 100 μL of a binding solution (1:100 dilution of the binding agent with the binding agent diluent) was added to each reaction and the reaction was performed at room temperature for 60 minutes.
Fluorescence intensity was measured at excitation of 485 nm and an emission of 528 nm using a Tecan Infinite M1000 microplate reader.
PDE activity assays were performed in duplicate at each concentration. Fluorescence intensity is converted to fluorescence polarization using the Tecan Magellan6 software. The fluorescence polarization (FPt) in absence of the compound in each data set was defined as 100% activity. In the absence of PDE and the compound, the value fluorescent polarization (FPb) in each data set was defined as 0% activity. The percent activity in the presence of compound was calculated according to Equation 1:
[formula] where FP=the fluorescence polarization in the presence of the compound.
The values of % activity versus a series of compound concentrations were then plotted using non-linear regression analysis of Sigmoidal dose-response curve generated with Equation 2:
[formula] where Y=percent activity, B=minimum percent activity, T=maximum percent activity, X=logarithm of compound, and Hill Slope=slope factor or Hill coefficient. The IC50 value was determined by the concentration causing a half-maximal percent activity. Results

androgen receptor (AR) = androgen receptor (AR) (Homo sapiens (Human), UniProt P10275); experiment: Androgen receptor (AR) reporter assay, antagonist screen activated by R1881; assay type: cell-based; details: AR-UAS-bla GripTite 293 cells, antagonist mode, R1881 at EC80
Method: The protocols and results of this Example were carried out and obtained by Thermofisher Scientific.
Test compounds were received at 1000× (or greater) of the desired starting concentration in 100% DMSO. If compounds were supplied at greater that 1000× concentration, an initial dilution is made in 100% DMSO to bring the compounds to 1000× concentration. The 1000× test compounds were serially diluted (10 point ½-log increments) in 100% DMSO.
The Substrate Loading Solution consists of three Life Technologies reagents: Solution A (10 mM LiveBLAzer™-FRET B/G Substrate), Solution B and Solution C.
Androgen Receptor (AR)—Antagonist Screen, Activated by R1881
AR-UAS-bla GripTite™ 293 cells were thawed and resuspended in Assay Media (DMEM phenol red free, 2% CD-treated FBS, 0.1 mM NEAA, 1 mM Sodium Pyruvate, 100 U/mL/100 μg/mL Pen/Strep) to a concentration of 312,500 cells/mL. 4 μL of a 10× serial dilution of Cyproterone Acetate (control antagonist starting concentration, 3,160 nM) or compounds are added to appropriate wells of a Poly-D-Lysine assay plate. 32 μL of cell suspension was added to the wells and pre-incubated at 37° C./5% CO2 in a humidified incubator with compounds and control antagonist titration for 30 minutes. 4 μL of 10× control agonist R1881 at the pre-determined EC80 concentration was added to wells containing the control antagonist or compounds. The plate was incubated for 16-24 hours at 37° C./5% CO2 in a humidified incubator. 8 μL of 1 μM Substrate Loading Solution is added to each well and the plate was incubated for 2 hours at room temperature. The plate was read on a fluorescence plate reader (Tecan Safire^2).

Human androgen receptors, sequence (P10275 whole entry T878A): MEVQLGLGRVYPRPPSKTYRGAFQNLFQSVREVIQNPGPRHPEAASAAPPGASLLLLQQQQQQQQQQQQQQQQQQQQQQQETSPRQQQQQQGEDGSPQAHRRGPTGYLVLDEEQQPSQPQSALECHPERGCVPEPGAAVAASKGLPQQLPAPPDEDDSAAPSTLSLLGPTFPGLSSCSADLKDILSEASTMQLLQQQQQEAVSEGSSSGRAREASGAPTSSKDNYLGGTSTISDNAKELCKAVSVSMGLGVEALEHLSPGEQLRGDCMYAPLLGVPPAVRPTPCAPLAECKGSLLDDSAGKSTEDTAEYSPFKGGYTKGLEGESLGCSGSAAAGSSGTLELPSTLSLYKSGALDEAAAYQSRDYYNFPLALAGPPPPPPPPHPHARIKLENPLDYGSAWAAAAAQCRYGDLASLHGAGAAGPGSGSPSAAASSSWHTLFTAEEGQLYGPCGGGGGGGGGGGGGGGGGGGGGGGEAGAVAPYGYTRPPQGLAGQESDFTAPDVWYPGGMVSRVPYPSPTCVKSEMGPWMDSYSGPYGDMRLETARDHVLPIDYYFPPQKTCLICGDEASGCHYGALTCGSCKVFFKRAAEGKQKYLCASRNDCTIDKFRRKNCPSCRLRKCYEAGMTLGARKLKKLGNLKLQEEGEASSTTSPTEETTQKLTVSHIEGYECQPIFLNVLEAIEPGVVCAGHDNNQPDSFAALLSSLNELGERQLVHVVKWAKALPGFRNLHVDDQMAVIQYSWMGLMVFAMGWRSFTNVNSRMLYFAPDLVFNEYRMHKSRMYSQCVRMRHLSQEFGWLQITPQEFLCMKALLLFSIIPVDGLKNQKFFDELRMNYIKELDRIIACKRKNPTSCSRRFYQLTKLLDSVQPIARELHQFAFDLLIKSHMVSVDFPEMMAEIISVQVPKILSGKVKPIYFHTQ
androgen receptor (AR), sequence (P10275 other isoform, or with tags, fused parts or gaps): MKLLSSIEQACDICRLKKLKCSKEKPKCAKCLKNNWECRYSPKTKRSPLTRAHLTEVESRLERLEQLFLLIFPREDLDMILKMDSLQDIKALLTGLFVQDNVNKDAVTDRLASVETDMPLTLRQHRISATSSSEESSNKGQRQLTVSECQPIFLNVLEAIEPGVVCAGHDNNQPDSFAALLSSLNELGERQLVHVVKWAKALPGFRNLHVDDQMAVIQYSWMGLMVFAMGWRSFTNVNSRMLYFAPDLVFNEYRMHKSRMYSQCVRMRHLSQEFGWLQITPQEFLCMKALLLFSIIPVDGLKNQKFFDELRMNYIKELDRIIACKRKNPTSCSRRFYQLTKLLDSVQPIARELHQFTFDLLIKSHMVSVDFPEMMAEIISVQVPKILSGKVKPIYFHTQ

Structure (SMILES)	IC50 (Human androgen receptors) [nM]	IC50 (human PDE-5A1) [nM]	IC50 (androgen receptor (AR)) [nM]
CCCc1nc(C)c2c(=O)[nH]c(-c3cc(N4C(=S)N(c5ccc(C#N)c(C(F)(F)F)c5)C(=O)C45CCCC5)ccc3OCC)nn12 [Compound 38, 4-(1-(4-ethoxy-3-(5-methyl-4-oxo-7-propyl-3,4-dihydroimidazo[5,1-f][1,2,4]triazin-2-yl)phenyl)-4-oxo-2-thioxo-1,3-diazaspiro[4.4]nonan-3-yl)-2-(trifluoromethyl)benzonitrile]	< 50	≤ 10	≤ 500
CCCc1nc(C)c2c(=O)[nH]c(-c3cc(N4C(=S)N(c5ccc(C#N)c(C(F)(F)F)c5F)C(=O)C4(C)C)ccc3OCC)nn12 [Compound 47, 4-(3-(4-ethoxy-3-(5-methyl-4-oxo-7-propyl-3,4-dihydroimidazo[5,1-f][1,2,4]triazin-2-yl)phenyl)-4,4-dimethyl-5-oxo-2-thioxoimidazolidin-1-yl)-3-fluoro-2-(trifluoromethyl)benzonitrile]	< 50	≤ 10	≤ 500
CCCc1nc(C)c2c(=O)[nH]c(-c3cc(N4C(=S)N(c5ccc(C#N)c(C(F)(F)F)c5F)C(=O)C45CCC5)ccc3OCC)nn12 [Compound 48, 4-(5-(4-ethoxy-3-(5-methyl-4-oxo-7-propyl-3,4-dihydroimidazo[5,1-f][1,2,4]triazin-2-yl)phenyl)-8-oxo-6-thioxo-5,7-diazaspiro[3.4]octan-7-yl)-3-fluoro-2-(trifluoromethyl)benzonitrile]	< 50	≤ 10	≤ 500
CCCc1nc(C)c2c(=O)[nH]c(-c3cc(N4C(=S)N(c5ccc(C#N)c(C(F)(F)F)c5F)C(=O)C45CCOC5)ccc3OCC)nn12 (stereo not drawn) [Compound 49, 4-(1-(4-ethoxy-3-(5-methyl-4-oxo-7-propyl-3,4-dihydroimidazo[5,1-f][1,2,4]triazin-2-yl)phenyl)-4-oxo-2-thioxo-7-oxa-1,3-diazaspiro[4.4]nonan-3-yl)-3-fluoro-2-(trifluoromethyl)benzonitrile]	< 50	≤ 10	500 to 1000
CCCc1nc(C)c2c(=O)[nH]c(-c3cc(N4C(=S)N(c5ccc(C#N)c(C(F)(F)F)c5F)C(=O)C45CCCC5)ccc3OCC)nn12 [Compound 50, 4-(1-(4-ethoxy-3-(5-methyl-4-oxo-7-propyl-3,4-dihydroimidazo[5,1-f][1,2,4]triazin-2-yl)phenyl)-4-oxo-2-thioxo-1,3-diazaspiro[4.4]nonan-3-yl)-3-fluoro-2-(trifluoromethyl)benzonitrile]	< 50	≤ 10	≤ 500
